The source of these data is patent US20260356856A1, “KRAS G12S AND G12C INHIBITORS” (MIRATI THERAPEUTICS, INC., priority 2023, published 2026).

For orientation: IC50 means the concentration at which inhibition is half-maximal. A lower IC50 goes with inhibition by little substance.

In experiment [1] the target is T1, KRas-mediated phosphorylation of ERK in A549 cells (Homo sapiens, UniProt P01116, G12S).
T1 construct: pERK HTRF read-out
The experiment is described as follows: Inhibition of KRas-mediated phosphorylation of ERK (HTRF), A549 cells. Type of experiment: cell-based. The following applies: HTRF pERK, 3 h incubation. Background: Time-resolved FRET reads energy transfer from a long-lived donor to a nearby acceptor.

In experiment [2] the target is T2, KRas-mediated phosphorylation of ERK in H358 cells (Homo sapiens, UniProt P01116, G12C).
T2 construct: pERK HTRF read-out
The experiment is described as follows: Inhibition of KRas-mediated phosphorylation of ERK (HTRF), H358 cells. The following applies: HTRF pERK, 3 h incubation. It counts as cell-based.

The target of experiment [3] is T3, KRas-mediated phosphorylation of ERK in MKN1 cells (Homo sapiens, UniProt P01116).
T3 construct: pERK HTRF read-out
The experiment is described as follows: Inhibition of KRas-mediated phosphorylation of ERK (HTRF), MKN1 cells. The following applies: MKN1 cells (KRas WT); HTRF pERK; 3 h incubation. It counts as cell-based. As for the experimental part: Inhibition of KRas Phosphorylation of ERK (HTRF) by Exemplary Compounds of Formula (Ia) or (Ib)
Cisbio HTRF Advanced pERK Assay Catalog #64AERPEH • Cells: MKN1, PSN1 • Procedure: • 1. Day 1: Seed 6,000 cells/well −25 μl/well in 384-well white solid bottom plate; RPM1_10% FBS. Incubate overnight at 37 °C/5% CO2. • 2.

Experiment [4] has as its target T4, KRas G12C (Homo sapiens, UniProt P01116, G12C).
T4 construct: Biotinylated KRas (corresponding to amino acids 1-169, produced at Accelegan Inc.); biotin (biotinylated); purchased Accelegan Inc
Briefly: KRas binding assay, TR-FRET displacement of Cy5 labelled tracer. The following applies: 60-minute incubation at room temperature, 1% DMSO, pH 7.5. In short, it runs like this:
(§1)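 IC50 came from fitting POC values with a four-parameter equation. Signal was read after one hour at room temperature. Protein was biotin-tagged KRas 1-169 captured by terbium streptavidin, with compound in 1% DMSO (final).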

Experiment [5] addresses T5, KRas WT (Homo sapiens, UniProt P01116).
T5 construct: Biotinylated KRas (corresponding to amino acids 1-169, produced at Accelegan Inc.); biotin (biotinylated); purchased Accelegan Inc
The experiment is described as above. The following applies: 60-minute incubation at room temperature, 1% DMSO, pH 7.5. Summed up:
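Room-temperature incubation (60 min) of compound with biotinylated KRas 1-169, tracer and Tb-streptavidin preceded the TR-FRET read. Final DMSO was 1%; buffer pH 7.5. Percent-of-control values went into a 4-parameter equation to give IC50.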

The target of experiment [6] is T6, KRas G12S (Homo sapiens, UniProt P01116, G12S).
T6 construct: Biotinylated KRas (corresponding to amino acids 1-169, produced at Accelegan Inc.); biotin (biotinylated); purchased Accelegan Inc
Described as above. To be noted: 60-minute incubation at room temperature, 1% DMSO, pH 7.5. In short, it runs like this: as §1

T6 sequence (P01116 1-169 isoform P01116-2 G12S): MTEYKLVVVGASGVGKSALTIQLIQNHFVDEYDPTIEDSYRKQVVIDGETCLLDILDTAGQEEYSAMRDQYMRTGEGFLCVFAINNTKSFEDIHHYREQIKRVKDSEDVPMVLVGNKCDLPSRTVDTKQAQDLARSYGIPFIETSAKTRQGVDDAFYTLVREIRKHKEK
T1 sequence (P01116 1-188 isoform P01116-2 G12S): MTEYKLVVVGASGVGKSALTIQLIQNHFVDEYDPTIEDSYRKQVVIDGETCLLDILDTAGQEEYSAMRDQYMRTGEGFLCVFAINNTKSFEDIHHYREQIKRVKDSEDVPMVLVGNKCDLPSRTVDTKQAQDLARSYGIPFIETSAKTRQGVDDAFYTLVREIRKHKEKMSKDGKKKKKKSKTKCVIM
T4 sequence (P01116 1-169 isoform P01116-2 G12C): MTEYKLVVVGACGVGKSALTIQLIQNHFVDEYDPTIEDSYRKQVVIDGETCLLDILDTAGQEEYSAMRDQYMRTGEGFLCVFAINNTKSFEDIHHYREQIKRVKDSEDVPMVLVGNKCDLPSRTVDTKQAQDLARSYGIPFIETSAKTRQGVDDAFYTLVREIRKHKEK
T5 sequence (P01116 1-169 isoform P01116-2): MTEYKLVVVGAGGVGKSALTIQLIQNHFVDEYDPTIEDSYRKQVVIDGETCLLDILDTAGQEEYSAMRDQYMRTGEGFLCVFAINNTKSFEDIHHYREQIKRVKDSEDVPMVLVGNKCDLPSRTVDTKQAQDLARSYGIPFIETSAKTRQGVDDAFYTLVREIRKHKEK
T2 sequence (P01116 1-188 isoform P01116-2 G12C): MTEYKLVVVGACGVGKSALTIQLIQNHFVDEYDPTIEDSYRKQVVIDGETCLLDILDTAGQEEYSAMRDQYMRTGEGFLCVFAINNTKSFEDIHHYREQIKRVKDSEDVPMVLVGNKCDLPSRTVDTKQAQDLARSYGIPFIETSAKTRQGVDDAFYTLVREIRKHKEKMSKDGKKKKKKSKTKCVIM
T3 sequence (P01116 1-188 isoform P01116-2): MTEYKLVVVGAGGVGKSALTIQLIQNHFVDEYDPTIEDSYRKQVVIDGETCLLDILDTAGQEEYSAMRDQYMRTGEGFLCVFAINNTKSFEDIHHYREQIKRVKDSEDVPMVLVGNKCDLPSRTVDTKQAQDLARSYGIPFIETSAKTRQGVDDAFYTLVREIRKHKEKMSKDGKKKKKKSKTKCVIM

Consider `CCc1c(F)ccc2cc(O)cc(-c3ncc4c(N(C)CCN(C)C(=O)n5ccnn5)nc(OC[C@@]56CCCN5C[C@H](F)C6)nc4c3F)c12` (single isomer, unassigned) [Example 208], for which the IC50 in experiment [1] was found to be 3980 nM; in experiment [2], 4 nM; in experiment [3] it was 854 nM; in experiment [4] it was 4 nM; in experiment [5] it was 171 nM; in experiment [6], 74 nM.

Turning to `CCc1c(F)ccc2cc(O)cc(-c3ncc4c(N5C[C@H]6C[C@@H](C(=O)n7ccc(C)n7)[C@H]6C5)nc(OC[C@@]56CCCN5C[C@H](F)C6)nc4c3F)c12` [Example 210, ((1S,5S,6R)-3-(7-(8-ethyl-7-fluoro-3-hydroxynaphthalen-1-yl)-8-fluoro-2-(((2R,7aS)-2-fluorotetrahydro-1H-pyrrolizin-7a(5H)-yl)methoxy)pyrido[4,3-d]pyrimidin-4-yl)-3-azabicyclo[3.2.0]heptan-6-yl)(3-methyl-1H-pyrazol-1-yl)methanone], the half-inhibitory concentration (IC50) was determined as 741 nM in experiment [1]; 8660 nM in experiment [2]; 5020 nM in experiment [3]; 2250 nM in experiment [4]; 2730 nM in experiment [5]; 1290 nM in experiment [6].

On to `CCc1c(F)ccc2cc(O)cc(-c3ncc4c(N5CCC(C(=O)N6CCCCC6=O)CC5)nc(OC[C@@]56CCCN5C[C@H](F)C6)nc4c3F)c12` [Example 154, 1-(1-(7-(8-ethyl-7-fluoro-3-hydroxynaphthalen-1-yl)-8-fluoro-2-(((2R,7aS)-2-fluorotetrahydro-1H-pyrrolizin-7a(5H)-yl)methoxy)pyrido[4,3-d]pyrimidin-4-yl)piperidine-4-carbonyl)piperidin-2-one], for which the IC50 in experiment [1] came to 6280 nM; in experiment [2], 7230 nM; in experiment [3], 2870 nM; in experiment [4], 338 nM; in experiment [5], 131 nM; in experiment [6], 257 nM.

With `CCc1c(F)ccc2cc(O)cc(-c3ncc4c(N5CCCCC(C(=O)N(C)C(C)=O)CC5)nc(OC[C@@]56CCCN5C[C@H](F)C6)nc4c3F)c12` (stereo partly drawn) [Example 275, N-acetyl-1-(7-(8-ethyl-7-fluoro-3-hydroxynaphthalen-1-yl)-8-fluoro-2-(((2R,7aS)-2-fluorotetrahydro-1H-pyrrolizin-7a(5H)-yl)methoxy)pyrido[4,3-d]pyrimidin-4-yl)-N-methylazocane-4-carboxamide], the IC50 in experiment [1] was 58 nM; in experiment [2] it was 164 nM; in experiment [3], 437 nM; in experiment [4], 52 nM; in experiment [5], 47 nM; in experiment [6], 15 nM.

Turning to `CCc1c(F)ccc2cc(O)cc(N3CCc4c(nc(OC[C@@]56CCCN5C[C@H](F)C6)nc4N4CCC(C(=O)n5ccc(C)n5)CC4)C3)c12` [Example 146, (1-(7-(8-ethyl-7-fluoro-3-hydroxynaphthalen-1-yl)-2-(((2R,7aS)-2-fluorotetrahydro-1H-pyrrolizin-7a(5H)-yl)methoxy)-5,6,7,8-tetrahydropyrido[3,4-d]pyrimidin-4-yl)piperidin-4-yl)(3-methyl-1H-pyrazol-1-yl)methanone], the IC50 is above 10000 nM in experiment [1]; 3830 nM in experiment [2]; 2530 nM in experiment [3]; 676 nM in experiment [4]; 412 nM in experiment [5]; 477 nM in experiment [6].

Consider `CN(CCCC(=O)Oc1ccccc1)c1nc(OC[C@@]23CCCN2C[C@H](F)C3)nc2c(F)c(-c3ccc(F)c4sc(N)c(C#N)c34)c(Cl)cc12` [Example 204, phenyl 4-((7-(2-amino-3-cyano-7-fluorobenzo[b]thiophen-4-yl)-6-chloro-8-fluoro-2-(((2R,7aS)-2-fluorotetrahydro-1H-pyrrolizin-7a(5H)-yl)methoxy)quinazolin-4-yl)(methyl)amino)butanoate], for which the IC50 is 351 nM in experiment [1]; 17 nM in experiment [2]; 230 nM in experiment [3]; below 2 nM in experiment [4]; 38 nM in experiment [5]; 13 nM in experiment [6].

`Cc1ccn(C(=O)C2C[C@@H]3CN(c4nc(OC[C@@]56CCCN5C[C@H](F)C6)nc5c(F)c(-c6ccc(F)c7sc(N)c(C#N)c67)c(Cl)cc45)C[C@@H]3C2)n1` (stereo partly drawn) [Example 180, 2-amino-4-(6-chloro-8-fluoro-2-(((2R,7aS)-2-fluorotetrahydro-1H-pyrrolizin-7a(5H)-yl)methoxy)-4-((3aR,6aS)-5-(3-methyl-1H-pyrazole-1-carbonyl)hexahydrocyclopenta[c]pyrrol-2 (1H)-yl)quinazolin-7-yl)-7-fluorobenzo[b]thiophene-3-carbonitrile]: the IC50 in experiment [1] was determined as 27 nM; in experiment [2] it was 232 nM; in experiment [3] it was 441 nM; in experiment [4] it was 26 nM; in experiment [5], 67 nM; in experiment [6], 4 nM.

As to `CCc1c(F)ccc2cc(O)cc(-c3ncc4c(N5CCCCC(C(=O)n6ccc(C)n6)C5)nc(OC[C@@]56CCCN5C[C@H](F)C6)nc4c3F)c12` (stereo partly drawn) [Example 68, (1-(7-(8-ethyl-7-fluoro-3-hydroxynaphthalen-1-yl)-8-fluoro-2-(((2R,7aS)-2-fluorotetrahydro-1H-pyrrolizin-7a(5H)-yl)methoxy)pyrido[4,3-d]pyrimidin-4-yl)azepan-3-yl)(3-methyl-1H-pyrazol-1-yl)methanone], the 50% inhibitory concentration (IC50) was determined as 77 nM in experiment [1]; 34 nM in experiment [2]; 12 nM in experiment [3]; 5 nM in experiment [4]; 10 nM in experiment [5]; 6 nM in experiment [6].

With `N#Cc1c(N)sc2c(F)ccc(-c3c(Cl)cc4c(N5CCC(C(=O)Oc6ccccc6F)CC5)nc(OC[C@@]56CCCN5C[C@H](F)C6)nc4c3F)c12` [Example 288, 2-fluorophenyl 1-(7-(2-amino-3-cyano-7-fluorobenzo[b]thiophen-4-yl)-6-chloro-8-fluoro-2-(((2R,7aS)-2-fluorotetrahydro-1H-pyrrolizin-7a(5H)-yl)methoxy)quinazolin-4-yl)piperidine-4-carboxylate], the IC50 in experiment [1] came out at 77 nM; in experiment [2] it was 24 nM; in experiment [3], 246 nM; in experiment [4], 9 nM; in experiment [5] it was 143 nM; in experiment [6], 20 nM.

As to `Cc1ccn(C(=O)C2CCCN(c3nc(OC[C@@]45CCCN4C/C(=C\F)C5)nc4c(F)c(-c5ccc(F)c6sc(N)c(C#N)c56)c(Cl)cc34)CC2)n1` (stereo partly drawn) [Example 175, 2-amino-4-(6-chloro-8-fluoro-2-(((S,Z)-2-(fluoromethylene)tetrahydro-1H-pyrrolizin-7a(5H)-yl)methoxy)-4-(4-(3-methyl-1H-pyrazole-1-carbonyl)azepan-1-yl)quinazolin-7-yl)-7-fluorobenzo[b]thiophene-3-carbonitrile], the IC50 in experiment [1] was 6 nM; in experiment [2], 11 nM; in experiment [3], 177 nM; in experiment [4] it was 9 nM; in experiment [5], 16 nM; in experiment [6] it was 8 nM.

`CCc1c(F)ccc2cc(O)cc(-c3ncc4c(N(C)CCNC(=O)n5ccnn5)nc(OC[C@@]56CCCN5C[C@H](F)C6)nc4c3F)c12` [Example 250, N-(2-((7-(8-ethyl-7-fluoro-3-hydroxynaphthalen-1-yl)-8-fluoro-2-(((2R,7aS)-2-fluorotetrahydro-1H-pyrrolizin-7a(5H)-yl)methoxy)pyrido[4,3-d]pyrimidin-4-yl)(methyl)amino)ethyl)-1H-1,2,3-triazole-1-carboxamide]: the half-inhibitory concentration (IC50) in experiment [1] is 1680 nM; in experiment [2], 8 nM; in experiment [3] it was 357 nM; in experiment [4] it was below 2 nM; in experiment [5], 37 nM; in experiment [6] it was 34 nM.

With `CCc1c(F)ccc2cc(O)cc(-c3ncc4c(N5CCC(C(=O)n6ccc(C(C)C)n6)CC5)nc(OC[C@@]56CCCN5C[C@H](F)C6)nc4c3F)c12` [Example 76, (1-(7-(8-ethyl-7-fluoro-3-hydroxynaphthalen-1-yl)-8-fluoro-2-(((2R,7aS)-2-fluorotetrahydro-1H-pyrrolizin-7a(5H)-yl)methoxy)pyrido[4,3-d]pyrimidin-4-yl)piperidin-4-yl)(3-isopropyl-1H-pyrazol-1-yl)methanone], the IC50 amounted to 223 nM in experiment [1]; 4720 nM in experiment [2]; 2060 nM in experiment [3]; 124 nM in experiment [4]; 166 nM in experiment [5]; 150 nM in experiment [6].
